Data from a melting point compilation (Tetko et al.; mined from patent text by program, amines drawn as free bases though some values may be those of a salt).

melting point [°C]	SMILES
> 260	Nc1ccc(-c2cnc3[nH]c(=O)n(CC4CCOCC4)c3n2)cn1
50 to 52	O=C1NC(=O)C(N(Cc2ccc(Br)cc2)c2ccc(CCNCC(O)COc3ccc(OCc4ccccc4)cc3)cc2)S1 (stereo unspecified)
138 to 139	CCOC(=O)c1cnn(-c2ccc(OCC(C)C)c(C#N)c2)c1
230 to 232	NS(=O)(=O)c1cc(C(=O)O)cc([N+](=O)[O-])c1Oc1cccc(Cl)c1
146 to 150	Cc1ccc(Cl)cc1-c1cccc2c1OC(CN)C2 (stereo unspecified)
88 to 96	O=C1CCC(c2ccc(NN=C(CO)c3ccccc3)cc2)=NN1
128 to 130	COc1cccc(-c2nc(-c3ccccc3COC(=O)c3ccccc3)n[nH]2)c1
102 to 106	CCCC[C@H](NC(=O)[C@H](CC(C)C)NC(=O)c1ccccc1C(F)(F)F)C(=O)CSCc1ccco1
266 to 267	CC(=O)c1ccc(-n2c(-c3sc(NC(=O)c4ccc(C)cc4)nc3-c3ccccc3)nc3ccccc3c2=O)cc1
168 to 170	N=C(Nc1ccc(Cl)cc1)Nc1ncccc1OCc1c(F)cccc1Cl
220 to 221	COc1cc2c(N3CCN(C(=O)Nc4ccc(Oc5ccccc5)cc4)CC3)ncnc2cc1OCc1ccccc1
127 to 128	COCC1CCCN1S(=O)(=O)c1ccc2c(c1)C1(OCCCO1)C(=O)N2 (stereo unspecified)
143	COC(=O)C1=C(C)NC(C)=C(C(=O)OCC2(C)OCCO2)C1c1cccc([N+](=O)[O-])c1 (stereo unspecified)
151 to 155	O=C1CCC(c2ccc(OCC3CO3)c3ccccc23)=NN1 (stereo unspecified)
142 to 146	CC(Oc1ccc(Oc2ccc3cc(Cl)ccc3n2)cc1)C(=O)Nc1ccc(C(F)(F)F)cc1 (stereo unspecified)
108	Nc1ccc(Cl)cc1NC1CCN(Cc2ccccc2)CC1
144 to 150	COc1cc(Nc2nccc(Nc3ccc(CC(=O)O)cc3)n2)cc(OC)c1OC
232 to 233	N#CCOc1cc(O)ccc1-c1nc2nccnc2[nH]1
130	CC1=C(C(=O)OCC(C)C)C(c2cccc([N+](=O)[O-])c2)c2c(N)nc(N)nc2N1 (stereo unspecified)
203 to 205	CC1(O)Nc2cc(O)c(C(C)(C)C)cc2O1 (stereo unspecified)
154 to 156	COc1ccc2c(c1O)NC(OC)C1CCCN1C2=O (stereo unspecified)
90	CN(CC(=O)OCCCCNc1cccc2c1C(=O)c1ccccc1C2=O)C(=O)OC(C)(C)C
195 to 196	CCNC1CN(c2c(F)cc3c(=O)c(C(=O)O)cn(-c4nc(N)c(F)cc4F)c3c2Br)C1
141	COc1cc(/C=C(\C#N)c2c[nH]c3ccc(OC)cc23)cc(OC)c1
173 to 175	COc1cc2c(OC)nc3c4ccccc4nc(OC)c3c2cc1OC

melting point [°C]	SMILES
70.5 to 71.5	COC(=O)N(C)c1cc(C(C)(C)C)no1
138 to 142	CCOC(=O)NN(C)c1cc(C)c(-c2ccc(C#N)cc2)nn1
123 to 126	Cc1cc(Cl)n(-c2ccc(Cl)nn2)n1
183 to 185	c1ccc(-c2cn3c(n2)sc2cnccc23)cc1
65.8	OC(COc1ccc(F)c(F)c1)CN1CCC(NCc2nc3ccccc3s2)CC1 (single isomer, unassigned; (+))
163 to 168	O=C(O)c1cc2cc(Cl)ccc2nc1N[C@@H](Cc1ccc(Cl)cc1)C(=O)O
98 to 99	COc1nc(OC)c(C=CC(C)=O)c(OC)n1
138 to 140	O=C(c1ccc(O)cc1)c1c(F)c(F)c(F)c(F)c1F
249 to 252	CC1CN(c2c(F)cc3c(=O)c(C(=O)O)cn(C4CC4)c3c2F)CC1CN (stereo unspecified)
74 to 75	COc1cc(CC#N)ccc1OCC#Cc1ccccc1
35 to 37	CCOC(=O)c1cnn2c1CCC2
105 to 106	Cc1oc(-c2ccccc2)nc1CCOc1ccc(CCC#N)cn1
141 to 143	COC(=O)C1CCC2C3CCC4CC(O)C(OC)CC4(C)C3C(NC3CCCCC3)CC12C (stereo unspecified)
136 to 141	O=C(OCCOC(c1ccccc1)(c1ccccc1)c1ccccc1)Oc1ccc([N+](=O)[O-])cc1
254 to 256	O=S(=O)(Nc1nc2ncccn2n1)c1ccccc1Cl
194 to 195	CC(=O)N1c2ccccc2CC1C(N)=S (stereo unspecified)
198 to 205	COC(=O)CCCc1cc2cc(Cl)ccc2n1S(=O)(=O)c1ccc2c(c1)CCC(=O)N2
173 to 175	Cc1nc(-c2ccc(Cl)cc2)n[nH]1
81.5 to 82.5	CC1(C)OC[C@@H](N)[C@H](O)CO1 (relative stereo)
125 to 129	COc1cc(F)ccc1-c1ccnc(NC(=O)[C@H]2CC[C@@H](NC(C)=O)C2)c1
118 to 120	CC(C)N1CC2(COc3ccccc3OC2)OC1=O
180 to 182	CCCCCCOCCOc1ccc(-c2ccc3c(c2)C=C(C(=O)Nc2ccc(CN(C)C4CCOCC4)cc2)CCS3(=O)=O)cc1
105 to 107	Cc1c(Cl)sc2[nH]c(=O)c(-c3ccccc3)c(O)c12
117 to 122	O=S(Cc1ccccn1)c1cnc2ccccc2n1 (stereo unspecified)
191 to 192	O=C(N[C@H](Cc1ccc(CC(F)(F)C(F)(F)F)cc1)[C@@H](O)c1cccc(Cl)c1)c1ccc(F)c2ccccc12 (racemic)

melting point [°C]	SMILES
144 to 145	NNC(=O)N(O)Cc1ccc(OCc2csc(-c3ccccc3)n2)cc1
65 to 66	CC(=O)c1cccc2cc[nH]c12
171 to 172	Cc1cccc2c(=O)nc(-c3cccc(C(=O)NCCCCCCNC(=O)OC(C)(C)C)n3)sc12
143 to 144	COC(=O)c1ccc2nc(C(F)(F)F)c(S(C)(=O)=O)nc2c1
161	O=C(OCC1CO1)c1c(Br)c(Br)c(C(=O)OCC2CO2)c(Br)c1Br (stereo unspecified)
76 to 78	COc1ccc(C(=O)CCc2cccnc2)cc1
117	CCNC(=S)NNC(=O)OC
195	CN(C)C(=O)c1ccncc1-c1nc(-c2ccc(Cl)cc2)cs1
170 to 171	CN(C(=O)Cc1ccccc1)c1nn(C)c(-c2ccc(F)cc2)c1-c1ccncc1
196 to 197	Cc1cn(C)c2cc(NC(=O)c3ccc(C(C)(C)O)cc3)ncc12
89 to 91	NC(=O)N(O)Cc1cccc(OCc2coc(-c3ccc(F)cc3)n2)c1
170 to 173	CC(=O)Nc1ccc(C=O)c(C)c1C#N
78 to 80	OCc1cccc(-n2cccc2)c1Br
157 to 159	N#Cc1ccc(-c2ccc(C(CCC(=O)O)=NO)cc2)cc1
54	Brc1nnnn1Cc1ccccc1
267	NC(=O)c1c(-c2cnccn2)ssc1=S
132 to 134	CCN(CC)C1=C2N=c3cc(Cl)ccc3=C2Oc2ccccc2N1Cc1ccccc1
161 to 165	N#CC(=C1C=CC(=NO[Si](c2ccccc2)(c2ccccc2)c2ccccc2)C=C1)c1ccccc1
199 to 201	COc1ccc(CN2C(=O)C(O)(c3cc4c(C)noc4cc3O)c3ccccc32)cc1 (stereo unspecified)
160	COc1ccc(C2CCOCC2)c2sc(NC(=O)N(C)[C@H]3CC[C@H](O)CC3)nc12
256 to 257	Cc1c(-c2ccncc2)[nH]c2c1C(=O)CC(c1ccccc1)C2 (stereo unspecified)
150 to 151	COc1cc(/C(C#N)=C\c2ccc(Cl)c(N)c2)cc(OC)c1OC
> 300	O=C(O)c1ccccc1-c1nnc(-c2ccc(C(F)(F)F)cc2)s1
187 to 189	CCCc1[nH]nc2c1C(=O)c1c(NC(N)=O)cccc1-2
103	CN1C(=O)N(CCC(=O)O)C(C)(C)C1=O

melting point [°C]	SMILES
197 to 199	O=C(Nc1ccc(C(F)(F)F)cc1)Nc1nc(OCC(F)(F)F)cc(C(F)(F)F)n1
167 to 172	CC(=O)N1CCc2c(sc(C)c2CCN2CCC(c3noc4ccc(F)cc34)CC2)C1
198 to 200	O=C1NCCN1c1ccc(S(=O)(=O)Nc2ccc(OC(F)F)cc2)cc1
150 to 151	O=C(O)CCn1c(=O)c2ccccc2n(CCCN2CCC(OC(c3ccccc3)c3ccccc3)CC2)c1=O
201 to 203	CC(C)c1cnc(NC(=O)Cc2csc(N)n2)s1
129 to 130	COc1cccc(C(F)(F)F)c1C(=O)O
203	COc1ccc(S(=O)(=O)C2(C(=O)O)CCN(CCCc3ccccc3)CC2)cc1
61	CCCCCCCCc1ccc(CCC(NC(C)=O)(C(=O)OCC)C(=O)OCC)cc1
67 to 68	CCOC(=O)c1cc(C(C)=O)on1
204 to 205	CC(=O)c1cccn1N1C(=O)c2ccccc2C1=O
52 to 53	COC(=O)c1ccc(C(C)O)cc1 (single isomer, unassigned; (+))
122 to 124	CCC1(CCCN2CCN(c3ccccn3)CC2)C(=O)Nc2ccccc21 (stereo unspecified)
57 to 58	Clc1ccc(CCOc2ncnc3ccccc23)cc1
237	CSc1ccnc(Oc2cc(C#N)cc(C#N)c2)n1
94 to 95	CSc1cccc(-c2ccccc2NC(=N)N(C)C)c1
79 to 82	CC(C)(C)OC(=O)NC(=N)NC(=O)c1cccc(P(c2ccccc2)c2ccccc2)c1
219 to 221	COc1cc2occ(C(=O)Nc3cccnc3)c2cc1C(F)(F)F
248	CP(=O)(O)CCC(=O)Nc1c(Br)cc(Br)cc1Br
208 to 214	CCNC(=O)[C@H]1N(C(=O)[C@@H](O)[C@H](Cc2ccccc2)NC(=O)c2cc(C)cc(O)c2C)CC(F)(F)C1(C)C
247 to 249	Cc1c(Br)c(Br)c(C)c(Br)c1Br
155 to 157	CN(Cc1ncco1)C1CCCN(C(=O)c2ccc(Nc3nccc(Nc4ccc(F)cc4)n3)cc2)C1 (stereo unspecified)
99 to 100	COC(=O)NNC(C)=S

SMILES	melting point [°C]
c1ccc(CC2CNCCN2)cc1 (racemic)	80 to 81
CC(C)N(CCC1(c2ccccc2)C(=O)NC(C)N2CCCCC21)C(C)C (stereo unspecified)	142 to 145
COc1cc2c(c(C)c1C)C(=O)CC2c1c[nH]cn1 (stereo unspecified)	258 to 261
COc1ccc2[nH]cc(CCCCN3CC=C(c4cccs4)CC3)c2c1	158
